In the NIST ThermoML archive (doi:10.1021/je050389b):

Legend:
[1] = Liquid
[2] = xn = mol fraction of the nth substance listed; conditions: Liquid, x2 = 0

CCOC(=O)Cc1ccccc1 [ethyl phenylacetate]
[1]
Conditions	mass density, 288.15 K [kg/m3]	mass density, 298.15 K [kg/m3]	mass density, 308.15 K [kg/m3]	mass density, 318.15 K [kg/m3]	viscosity, 288.15 K [mPa·s]	viscosity, 298.15 K [mPa·s]	viscosity, 308.15 K [mPa·s]	viscosity, 318.15 K [mPa·s]
100.5 kPa	–	–	–	–	3.002	2.384	1.948	1.624
101 kPa	1036.35	1026.96	1017.6	1008.26	–	–	–	–

CCOC(=O)c1ccccc1 [ethyl benzoate]
[1]
Conditions	mass density, 288.15 K [kg/m3]	mass density, 298.15 K [kg/m3]	mass density, 308.15 K [kg/m3]	mass density, 318.15 K [kg/m3]	viscosity, 288.15 K [mPa·s]	viscosity, 298.15 K [mPa·s]	viscosity, 308.15 K [mPa·s]	viscosity, 318.15 K [mPa·s]
100.5 kPa	–	–	–	–	2.444	1.971	1.624	1.368
101 kPa	1050.78	1041.42	1032.07	1022.73	–	–	–	–

CC(=O)OCCC(C)C [3-methylbutyl ethanoate]
[1], 100.5 kPa
Conditions	mass density [kg/m3]	viscosity [mPa·s]
288.15 K	877.72	0.94
298.15 K	867.91	0.804
308.15 K	858.07	0.704
318.15 K	848.17	0.627

CCO [ethanol] + CC(=O)OCCC(C)C
[2], 100.5 kPa
Conditions	mass density [kg/m3]	viscosity [mPa·s]
288.15 K	793.6	1.337
298.15 K	785	1.105
308.15 K	776.31	0.921
318.15 K	767.44	0.771

CCO [ethanol] + CCOC(=O)c1ccccc1
[2]
Conditions	mass density, 288.15 K [kg/m3]	mass density, 298.15 K [kg/m3]	mass density, 308.15 K [kg/m3]	mass density, 318.15 K [kg/m3]	viscosity, 288.15 K [mPa·s]	viscosity, 298.15 K [mPa·s]	viscosity, 308.15 K [mPa·s]	viscosity, 318.15 K [mPa·s]
100.5 kPa	–	–	–	–	1.337	1.105	0.921	0.771
101 kPa	793.6	785	776.31	767.44	–	–	–	–

CCO [ethanol]
[1]
Conditions	mass density, 288.15 K [kg/m3]	mass density, 298.15 K [kg/m3]	mass density, 308.15 K [kg/m3]	mass density, 318.15 K [kg/m3]	viscosity, 288.15 K [mPa·s]	viscosity, 298.15 K [mPa·s]	viscosity, 308.15 K [mPa·s]	viscosity, 318.15 K [mPa·s]
100.5 kPa	793.6	785	776.31	767.44	1.337	1.105	0.921	0.771
101 kPa	793.6	785	776.31	767.44	–	–	–	–

CCCC(=O)OCCC(C)C [3-methylbutyl butanoate]
[1]
Conditions	mass density, 288.15 K [kg/m3]	mass density, 298.15 K [kg/m3]	mass density, 308.15 K [kg/m3]	mass density, 318.15 K [kg/m3]	viscosity, 288.15 K [mPa·s]	viscosity, 298.15 K [mPa·s]	viscosity, 308.15 K [mPa·s]	viscosity, 318.15 K [mPa·s]
100.5 kPa	–	–	–	–	1.317	1.111	0.952	0.827
101 kPa	867.72	858.69	849.62	840.55	–	–	–	–

CCO [ethanol] + CCCC(=O)OCCC(C)C
[2]
Conditions	mass density, 288.15 K [kg/m3]	mass density, 298.15 K [kg/m3]	mass density, 308.15 K [kg/m3]	mass density, 318.15 K [kg/m3]	viscosity, 288.15 K [mPa·s]	viscosity, 298.15 K [mPa·s]	viscosity, 308.15 K [mPa·s]	viscosity, 318.15 K [mPa·s]
100.5 kPa	–	–	–	–	1.337	1.105	0.921	0.771
101 kPa	793.6	785	776.31	767.44	–	–	–	–

CCO [ethanol] + CCOC(=O)Cc1ccccc1
[2]
Conditions	mass density, 288.15 K [kg/m3]	mass density, 298.15 K [kg/m3]	mass density, 308.15 K [kg/m3]	mass density, 318.15 K [kg/m3]	viscosity, 288.15 K [mPa·s]	viscosity, 298.15 K [mPa·s]	viscosity, 308.15 K [mPa·s]	viscosity, 318.15 K [mPa·s]
100.5 kPa	–	–	–	–	1.337	1.105	0.921	0.771
101 kPa	793.6	785	776.31	767.44	–	–	–	–

CCO [ethanol] + CCCCCCCC(=O)OCC
[2]
Conditions	mass density, 288.15 K [kg/m3]	mass density, 298.15 K [kg/m3]	mass density, 308.15 K [kg/m3]	mass density, 318.15 K [kg/m3]	viscosity, 288.15 K [mPa·s]	viscosity, 298.15 K [mPa·s]	viscosity, 308.15 K [mPa·s]	viscosity, 318.15 K [mPa·s]
100.5 kPa	–	–	–	–	1.337	1.105	0.921	0.771
101 kPa	793.6	785	776.31	767.44	–	–	–	–

CCO [ethanol] + CCCCCC(=O)OCC
[2]
Conditions	mass density, 288.15 K [kg/m3]	mass density, 298.15 K [kg/m3]	mass density, 308.15 K [kg/m3]	mass density, 318.15 K [kg/m3]	viscosity, 288.15 K [mPa·s]	viscosity, 298.15 K [mPa·s]	viscosity, 308.15 K [mPa·s]	viscosity, 318.15 K [mPa·s]
100.5 kPa	–	–	–	–	1.337	1.105	0.921	0.771
101 kPa	793.6	785	776.31	767.44	–	–	–	–

CCCCCCCC(=O)OCC [ethyl octanoate]
[1]
Conditions	mass density, 288.15 K [kg/m3]	mass density, 298.15 K [kg/m3]	mass density, 308.15 K [kg/m3]	mass density, 318.15 K [kg/m3]	viscosity, 288.15 K [mPa·s]	viscosity, 298.15 K [mPa·s]	viscosity, 308.15 K [mPa·s]	viscosity, 318.15 K [mPa·s]
100.5 kPa	–	–	–	–	1.697	1.411	1.193	1.027
101 kPa	870.79	862.15	853.52	844.87	–	–	–	–

CCCCCC(=O)OCC [ethyl hexanoate]
[1]
Conditions	mass density, 288.15 K [kg/m3]	mass density, 298.15 K [kg/m3]	mass density, 308.15 K [kg/m3]	mass density, 318.15 K [kg/m3]	viscosity, 288.15 K [mPa·s]	viscosity, 298.15 K [mPa·s]	viscosity, 308.15 K [mPa·s]	viscosity, 318.15 K [mPa·s]
100.5 kPa	–	–	–	–	1.102	0.94	0.814	0.711
101 kPa	875.64	866.29	856.91	847.5	–	–	–	–
